{"source": "ChEMBL document CHEMBL4387741", "about": "“Optimization of novel reversible Bruton's tyrosine kinase inhibitors identified using Tethering-fragment-based screens” (Bioorg Med Chem, 2019)", "key": {"[1]": {"tested_on": "Tyrosine-protein kinase ABL1 (Homo sapiens), P00519 [F317L]", "experiment": "Inhibition of human phosphorylated ABL1 F317L mutant (S229 to K512 residues) expressed in mammalian expression system at 1 uM by Kinomescan method relative to control"}, "[2]": {"biological_target": "Activin receptor type-1-like (Homo sapiens) (UniProt P37023)", "experiment": "Inhibition of wild-type human ACVRL1 (L164 to Q503 residues) expressed in bacterial expression system at 1 uM by Kinomescan method relative to control"}, "[3]": {"biological_target": "Cyclin-dependent kinase 8 (Homo sapiens) (UniProt P49336)", "experiment": "Inhibition of wild-type human partial length CDK8 (M1 to T360 residues) expressed in bacterial expression system at 1 uM by Kinomescan method relative to control"}, "[4]": {"biological_target": "Dual specificity protein kinase CLK4 (Homo sapiens) (UniProt Q9HAZ1)", "experiment": "Inhibition of wild-type human partial length CLK4 (R135 to K481 residues) expressed in bacterial expression system at 1 uM by Kinomescan method relative to control"}, "[5]": {"biological_target": "Tyrosine-protein kinase CSK (Homo sapiens) (UniProt P41240)", "sequence (P41240 2-450 limits assumed)": "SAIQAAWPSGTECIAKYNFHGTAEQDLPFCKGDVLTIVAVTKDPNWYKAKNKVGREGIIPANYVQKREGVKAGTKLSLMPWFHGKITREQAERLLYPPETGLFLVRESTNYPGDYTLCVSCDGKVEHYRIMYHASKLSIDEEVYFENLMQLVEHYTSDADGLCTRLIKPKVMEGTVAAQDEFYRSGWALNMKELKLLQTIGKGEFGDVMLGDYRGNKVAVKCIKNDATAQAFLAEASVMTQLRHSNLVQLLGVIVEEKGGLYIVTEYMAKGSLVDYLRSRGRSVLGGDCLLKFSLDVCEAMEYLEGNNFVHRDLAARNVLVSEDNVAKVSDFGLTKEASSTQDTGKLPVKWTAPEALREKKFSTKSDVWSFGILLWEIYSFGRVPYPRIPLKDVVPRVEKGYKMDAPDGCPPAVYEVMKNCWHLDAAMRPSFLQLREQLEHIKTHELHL", "experiment": "Inhibition of wild-type human full length CSK (M1 to L450 residues) expressed in bacterial expression system at 1 uM by Kinomescan method relative to control"}, "[6]": {"biological_target": "Casein kinase I isoform delta (Homo sapiens) (UniProt P48730)", "experiment": "Inhibition of wild-type human full length CSNK1D (M1 to K409 residues) expressed in bacterial expression system at 1 uM by Kinomescan method relative to control"}, "[7]": {"biological_target": "Ephrin type-B receptor 1 (Homo sapiens) (UniProt P54762)", "sequence (P54762 whole entry, the tested form may be a part)": "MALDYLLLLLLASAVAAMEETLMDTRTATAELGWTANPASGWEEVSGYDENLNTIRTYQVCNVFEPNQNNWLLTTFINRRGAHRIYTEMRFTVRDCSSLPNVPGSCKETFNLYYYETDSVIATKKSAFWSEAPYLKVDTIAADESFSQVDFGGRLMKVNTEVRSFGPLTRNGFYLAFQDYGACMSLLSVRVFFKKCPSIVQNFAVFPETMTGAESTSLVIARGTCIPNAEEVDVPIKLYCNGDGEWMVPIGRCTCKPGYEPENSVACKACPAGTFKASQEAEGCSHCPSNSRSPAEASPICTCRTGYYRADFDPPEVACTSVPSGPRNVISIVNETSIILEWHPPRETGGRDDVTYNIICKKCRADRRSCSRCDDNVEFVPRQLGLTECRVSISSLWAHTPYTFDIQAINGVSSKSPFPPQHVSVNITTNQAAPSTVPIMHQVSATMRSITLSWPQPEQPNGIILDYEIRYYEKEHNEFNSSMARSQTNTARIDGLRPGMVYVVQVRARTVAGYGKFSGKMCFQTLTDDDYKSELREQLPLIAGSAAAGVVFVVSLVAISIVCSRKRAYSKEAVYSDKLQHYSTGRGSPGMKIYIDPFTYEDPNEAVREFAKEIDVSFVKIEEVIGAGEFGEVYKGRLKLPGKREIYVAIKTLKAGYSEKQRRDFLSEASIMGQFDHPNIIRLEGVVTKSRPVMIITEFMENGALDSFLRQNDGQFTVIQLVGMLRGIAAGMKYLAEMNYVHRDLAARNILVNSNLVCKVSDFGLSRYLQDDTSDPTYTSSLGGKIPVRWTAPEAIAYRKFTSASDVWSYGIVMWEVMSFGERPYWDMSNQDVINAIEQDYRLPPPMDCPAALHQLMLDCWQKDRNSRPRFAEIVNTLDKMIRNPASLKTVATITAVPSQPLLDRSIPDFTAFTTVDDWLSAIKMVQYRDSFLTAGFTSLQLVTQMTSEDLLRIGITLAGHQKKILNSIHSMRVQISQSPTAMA", "experiment": "Inhibition of wild-type human partial length EPHB1 (P589 to T911 residues) expressed in bacterial expression system at 1 uM by Kinomescan method relative to control"}, "[8]": {"biological_target": "Mitogen-activated protein kinase 3 (Homo sapiens) (UniProt P27361)", "experiment": "Inhibition of wild-type human full length ERK1 (M1 to P379 residues) expressed in bacterial expression system at 1 uM by Kinomescan method relative to control"}, "[9]": {"tested_on": "Receptor-type tyrosine-protein kinase FLT3 (Homo sapiens), P36888 [UNDEFINED MUTATION]", "sequence (P36888 whole entry, looked up, change not shown)": "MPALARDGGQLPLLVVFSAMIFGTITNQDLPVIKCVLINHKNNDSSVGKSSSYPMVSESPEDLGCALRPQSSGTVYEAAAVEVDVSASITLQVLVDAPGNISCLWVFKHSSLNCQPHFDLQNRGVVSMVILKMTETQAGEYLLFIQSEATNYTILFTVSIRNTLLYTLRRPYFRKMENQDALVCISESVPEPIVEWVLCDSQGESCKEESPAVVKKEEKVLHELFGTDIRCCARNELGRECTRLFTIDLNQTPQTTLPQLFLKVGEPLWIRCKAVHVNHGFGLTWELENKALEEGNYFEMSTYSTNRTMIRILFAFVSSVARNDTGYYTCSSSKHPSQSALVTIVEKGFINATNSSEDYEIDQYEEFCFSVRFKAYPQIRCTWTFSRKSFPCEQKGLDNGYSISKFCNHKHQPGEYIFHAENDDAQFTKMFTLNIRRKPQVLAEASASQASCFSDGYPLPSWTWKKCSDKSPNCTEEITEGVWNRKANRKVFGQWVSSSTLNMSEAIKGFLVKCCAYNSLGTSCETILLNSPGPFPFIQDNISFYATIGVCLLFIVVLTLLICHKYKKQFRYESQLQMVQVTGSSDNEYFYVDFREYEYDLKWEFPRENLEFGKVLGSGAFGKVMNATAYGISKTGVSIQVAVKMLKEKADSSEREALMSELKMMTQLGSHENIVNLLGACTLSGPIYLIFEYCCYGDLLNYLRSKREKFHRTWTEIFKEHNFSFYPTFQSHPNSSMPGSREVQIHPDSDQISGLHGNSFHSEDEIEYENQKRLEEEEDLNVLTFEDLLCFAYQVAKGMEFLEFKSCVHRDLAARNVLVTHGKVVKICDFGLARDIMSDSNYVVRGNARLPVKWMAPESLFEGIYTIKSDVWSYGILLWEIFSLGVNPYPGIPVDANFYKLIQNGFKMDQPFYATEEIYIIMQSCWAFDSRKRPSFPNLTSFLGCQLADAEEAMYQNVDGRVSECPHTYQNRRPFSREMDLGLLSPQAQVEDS", "experiment": "Inhibition of human partial length FLT3 ITD mutant expressed in bacterial expression system at 1 uM by Kinomescan method relative to control"}, "[10]": {"biological_target": "Mitogen-activated protein kinase 8 (Homo sapiens) (UniProt P45983)", "sequence (P45983 whole entry, the tested form may be a part)": "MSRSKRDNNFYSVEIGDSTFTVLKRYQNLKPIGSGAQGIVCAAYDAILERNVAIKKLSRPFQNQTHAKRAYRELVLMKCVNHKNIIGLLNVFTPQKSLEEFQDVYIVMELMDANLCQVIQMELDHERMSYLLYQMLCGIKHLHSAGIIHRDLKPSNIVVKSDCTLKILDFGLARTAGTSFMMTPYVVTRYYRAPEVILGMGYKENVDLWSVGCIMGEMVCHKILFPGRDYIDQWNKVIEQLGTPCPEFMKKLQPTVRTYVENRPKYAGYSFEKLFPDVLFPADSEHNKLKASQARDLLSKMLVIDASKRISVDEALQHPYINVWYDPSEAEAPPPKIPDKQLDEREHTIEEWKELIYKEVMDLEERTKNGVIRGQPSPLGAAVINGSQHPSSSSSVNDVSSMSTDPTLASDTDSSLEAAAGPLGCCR", "experiment": "Inhibition of wild-type human full length JNK1 (M1 to Q384 residues) expressed in mammalian expression system at 1 uM by Kinomescan method relative to control"}, "[11]": {"biological_target": "Serine/threonine-protein kinase 38 (Homo sapiens) (UniProt Q15208)", "experiment": "Inhibition of wild-type human partial length NDR1 (N33 to E449 residues) expressed in mammalian expression system at 1 uM by Kinomescan method relative to control"}, "[12]": {"biological_target": "Serine/threonine-protein kinase Nek7 (Homo sapiens) (UniProt Q8TDX7)", "sequence (Q8TDX7 whole entry, looked up, the tested form may be a part)": "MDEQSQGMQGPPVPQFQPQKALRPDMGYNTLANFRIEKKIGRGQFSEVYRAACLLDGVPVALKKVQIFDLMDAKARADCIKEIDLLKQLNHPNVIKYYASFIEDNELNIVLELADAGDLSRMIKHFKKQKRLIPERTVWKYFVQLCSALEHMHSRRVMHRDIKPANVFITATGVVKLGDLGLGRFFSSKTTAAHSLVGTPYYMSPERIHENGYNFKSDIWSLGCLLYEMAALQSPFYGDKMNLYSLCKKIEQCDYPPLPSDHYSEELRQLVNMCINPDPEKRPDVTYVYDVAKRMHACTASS", "experiment": "Inhibition of wild-type human full length NEK7 (M1 to S302 residues) expressed in bacterial expression system at 1 uM by Kinomescan method relative to control"}, "[13]": {"biological_target": "Serine/threonine-protein kinase D1 (Homo sapiens) (UniProt Q15139)", "experiment": "Inhibition of wild-type human partial length PRKD1 (G551 to E870 residues) expressed in bacterial expression system at 1 uM by Kinomescan method relative to control"}, "[14]": {"biological_target": "NT-3 growth factor receptor (Homo sapiens) (UniProt Q16288)", "experiment": "Inhibition of wild-type human partial length TRKC (Q531 to G825 residues) expressed in mammalian expression system at 1 uM by Kinomescan method relative to control"}, "[15]": {"biological_target": "Wee1-like protein kinase (Homo sapiens) (UniProt P30291)", "sequence (P30291 whole entry, looked up, the tested form may be a part)": "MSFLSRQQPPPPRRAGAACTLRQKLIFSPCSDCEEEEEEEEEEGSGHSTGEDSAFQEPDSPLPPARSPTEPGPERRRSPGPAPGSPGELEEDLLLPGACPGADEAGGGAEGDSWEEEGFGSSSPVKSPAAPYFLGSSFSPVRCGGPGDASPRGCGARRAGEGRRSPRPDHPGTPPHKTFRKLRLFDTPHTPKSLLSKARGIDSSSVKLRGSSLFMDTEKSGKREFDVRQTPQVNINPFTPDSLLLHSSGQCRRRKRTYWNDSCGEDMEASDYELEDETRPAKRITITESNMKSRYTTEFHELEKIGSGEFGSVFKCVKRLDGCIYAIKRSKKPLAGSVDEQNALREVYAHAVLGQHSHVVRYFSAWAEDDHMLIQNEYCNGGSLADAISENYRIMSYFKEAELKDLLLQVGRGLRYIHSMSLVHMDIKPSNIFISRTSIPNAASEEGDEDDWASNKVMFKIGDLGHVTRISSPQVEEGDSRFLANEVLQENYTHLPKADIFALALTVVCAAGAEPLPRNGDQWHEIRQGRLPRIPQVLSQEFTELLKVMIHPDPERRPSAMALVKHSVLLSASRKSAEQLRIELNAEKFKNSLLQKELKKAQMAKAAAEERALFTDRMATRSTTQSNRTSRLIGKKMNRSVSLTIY", "experiment": "Inhibition of wild-type human partial length WEE1 (M291 to K575 residues) expressed in bacterial expression system at 1 uM by Kinomescan method relative to control"}, "[16]": {"experiment": "Apparent permeability from apical to basolateral side in human Caco2 cells at 5 uM after 120 mins by LC-MS/MS analysis", "assay_type": "ADME, cell-based", "settings": "Caco-2"}, "[17]": {"tested_on": "Tyrosine-protein kinase ABL1 (Homo sapiens), P00519 [H396P]", "experiment": "Inhibition of human phosphorylated ABL1 H396P mutant (S229 to K512 residues) expressed in mammalian expression system at 10 uM by Kinomescan method relative to control"}, "[18]": {"biological_target": "Activin receptor type-1B (Homo sapiens) (UniProt P36896)", "experiment": "Inhibition of wild-type human ACVR1B (S187 to I505 residues) expressed in bacterial expression system at 10 uM by Kinomescan method relative to control"}, "[19]": {"biological_target": "Tyrosine-protein kinase Fes/Fps (Homo sapiens) (UniProt P07332)", "sequence (P07332 whole entry, the tested form may be a part)": "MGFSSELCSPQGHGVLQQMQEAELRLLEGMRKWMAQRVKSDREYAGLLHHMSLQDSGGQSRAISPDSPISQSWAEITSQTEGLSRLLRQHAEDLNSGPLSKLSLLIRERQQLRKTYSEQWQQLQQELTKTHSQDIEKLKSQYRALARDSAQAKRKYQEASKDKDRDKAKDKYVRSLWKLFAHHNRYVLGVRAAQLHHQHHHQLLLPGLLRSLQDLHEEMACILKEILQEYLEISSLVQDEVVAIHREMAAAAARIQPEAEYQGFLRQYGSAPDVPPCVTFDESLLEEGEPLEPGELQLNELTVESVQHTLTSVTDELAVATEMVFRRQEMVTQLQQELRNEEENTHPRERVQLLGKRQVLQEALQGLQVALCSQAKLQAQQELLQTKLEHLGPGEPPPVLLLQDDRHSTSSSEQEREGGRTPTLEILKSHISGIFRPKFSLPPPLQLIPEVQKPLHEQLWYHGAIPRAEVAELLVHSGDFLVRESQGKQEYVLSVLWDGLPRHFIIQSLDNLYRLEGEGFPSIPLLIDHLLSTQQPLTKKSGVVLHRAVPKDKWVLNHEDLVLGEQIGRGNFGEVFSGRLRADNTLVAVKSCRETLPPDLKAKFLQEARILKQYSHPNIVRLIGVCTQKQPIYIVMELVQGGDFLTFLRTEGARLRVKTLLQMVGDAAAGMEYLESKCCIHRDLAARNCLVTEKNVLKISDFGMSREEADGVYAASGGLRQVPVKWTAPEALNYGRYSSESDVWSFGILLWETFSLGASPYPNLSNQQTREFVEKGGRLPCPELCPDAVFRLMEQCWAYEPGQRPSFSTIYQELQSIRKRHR", "experiment": "Inhibition of wild-type human partial length FES (I527 to R822 residues) expressed in bacterial expression system at 10 uM by Kinomescan method relative to control"}, "[20]": {"biological_target": "Tyrosine-protein kinase JAK1 (Homo sapiens) (UniProt P23458)", "experiment": "Inhibition of wild-type human partial length JAK1 JH1 catalytic domain (V856 to K1154 residues) expressed in bacterial expression system at 10 uM by Kinomescan method relative to control"}, "[21]": {"biological_target": "Mitogen-activated protein kinase 8 (Homo sapiens) (UniProt P45983)", "experiment": "Inhibition of wild-type human full length JNK1 (M1 to Q384 residues) expressed in mammalian expression system at 10 uM by Kinomescan method relative to control"}, "[22]": {"biological_target": "Mitogen-activated protein kinase kinase kinase kinase 5 (Homo sapiens) (UniProt Q9Y4K4)", "experiment": "Inhibition of wild-type human partial length MAP4K5 (M1 to P297 residues) expressed in bacterial expression system at 10 uM by Kinomescan method relative to control"}, "[23]": {"biological_target": "Serine/threonine-protein kinase 3 (Homo sapiens) (UniProt Q13188)", "experiment": "Inhibition of wild-type human partial length MST2 (D17 to E318 residues) expressed in bacterial expression system at 10 uM by Kinomescan method relative to control"}, "[24]": {"biological_target": "Phosphatidylinositol 4-phosphate 3-kinase C2 domain-containing subunit beta (Homo sapiens) (UniProt O00750)", "experiment": "Inhibition of wild-type human partial length PIK3C2B (M1 to L1634 residues) expressed in mammalian expression system at 10 uM by Kinomescan method relative to control"}, "[25]": {"biological_target": "Phosphatidylinositol 4,5-bisphosphate 3-kinase catalytic subunit alpha isoform (Homo sapiens) (UniProt P42336)", "experiment": "Inhibition of wild-type human partial length PIK3CA (R108 to N1068 residues) expressed in mammalian expression system at 10 uM by Kinomescan method relative to control"}, "[26]": {"biological_target": "cAMP-dependent protein kinase catalytic subunit beta (Homo sapiens) (UniProt P22694)", "experiment": "Inhibition of wild-type human full length PKAC-beta (M1 to F351 residues) expressed in bacterial expression system at 10 uM by Kinomescan method relative to control"}, "[27]": {"biological_target": "cAMP-dependent protein kinase catalytic subunit PRKX (Homo sapiens) (UniProt P51817)", "sequence (P51817 whole entry, the tested form may be a part)": "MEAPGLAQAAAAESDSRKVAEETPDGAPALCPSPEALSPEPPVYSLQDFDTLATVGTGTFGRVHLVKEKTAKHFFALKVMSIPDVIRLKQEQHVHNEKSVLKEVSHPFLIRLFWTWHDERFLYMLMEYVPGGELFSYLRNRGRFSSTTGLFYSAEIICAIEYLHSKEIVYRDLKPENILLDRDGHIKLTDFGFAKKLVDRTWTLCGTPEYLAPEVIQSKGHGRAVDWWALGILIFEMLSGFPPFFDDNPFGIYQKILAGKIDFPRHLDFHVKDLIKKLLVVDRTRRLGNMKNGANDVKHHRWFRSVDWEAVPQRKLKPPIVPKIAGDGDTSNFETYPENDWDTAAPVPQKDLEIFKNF", "experiment": "Inhibition of wild-type human partial length PRKX (M1 to F358 residues) expressed in bacterial expression system at 10 uM by Kinomescan method relative to control"}, "[28]": {"biological_target": "Wee1-like protein kinase (Homo sapiens) (UniProt P30291)", "experiment": "Inhibition of wild-type human partial length WEE1 (M291 to K575 residues) expressed in bacterial expression system at 10 uM by Kinomescan method relative to control"}}}
{"smiles": "O=C(Nc1cccc([C@@H]2CN(c3ncnc4[nH]ccc34)CCN2CCO)c1)Nc1c(F)cccc1N1CCCC1", "values": [{"measurement": "inhibition", "setting": "[1]", "result": 100, "unit": "%"}, {"measurement": "inhibition", "setting": "[2]", "result": 100, "unit": "%"}, {"measurement": "inhibition", "setting": "[3]", "result": 84, "unit": "%"}, {"measurement": "inhibition", "setting": "[4]", "result": 100, "unit": "%"}, {"measurement": "inhibition", "setting": "[5]", "result": 65, "unit": "%"}, {"measurement": "inhibition", "setting": "[6]", "result": 100, "unit": "%"}, {"measurement": "inhibition", "setting": "[7]", "result": 97, "unit": "%"}, {"measurement": "inhibition", "setting": "[8]", "result": 100, "unit": "%"}, {"measurement": "inhibition", "setting": "[9]", "result": 8.7, "unit": "%"}, {"measurement": "inhibition", "setting": "[10]", "result": 70, "unit": "%"}, {"measurement": "inhibition", "setting": "[11]", "result": 72, "unit": "%"}, {"measurement": "inhibition", "setting": "[12]", "result": 92, "unit": "%"}, {"measurement": "inhibition", "setting": "[13]", "result": 100, "unit": "%"}, {"measurement": "inhibition", "setting": "[14]", "result": 99, "unit": "%"}, {"measurement": "inhibition", "setting": "[15]", "result": 100, "unit": "%"}, {"measurement": "Papp A→B at 2 h, 5 µM", "setting": "[16]", "result": 4, "unit": "×10⁻⁶ cm/s"}]}
{"smiles": "O=C(Nc1cccc([C@H]2CCCN(c3ncnc4[nH]ccc34)C2)c1)Nc1ccccc1N1CCCC1", "values": [{"measurement": "inhibition", "setting": "[17]", "result": 51, "unit": "%"}, {"measurement": "inhibition", "setting": "[18]", "result": 100, "unit": "%"}, {"measurement": "inhibition", "setting": "[19]", "result": 99, "unit": "%"}, {"measurement": "inhibition", "setting": "[20]", "result": 29, "unit": "%"}, {"measurement": "inhibition", "setting": "[21]", "result": 42, "unit": "%"}, {"measurement": "inhibition", "setting": "[22]", "result": 30, "unit": "%"}, {"measurement": "inhibition", "setting": "[23]", "result": 54, "unit": "%"}, {"measurement": "inhibition", "setting": "[24]", "result": 51, "unit": "%"}, {"measurement": "inhibition", "setting": "[25]", "result": 99, "unit": "%"}, {"measurement": "inhibition", "setting": "[26]", "result": 100, "unit": "%"}, {"measurement": "inhibition", "setting": "[27]", "result": 96, "unit": "%"}, {"measurement": "inhibition", "setting": "[28]", "result": 100, "unit": "%"}]}
